Read-outs that look alike come from different tables or passages of the source.
Tests used:
Test in all cases: biochemical
Parameters in all cases: KINOMEscan scanMAX competition binding, DNA-tagged kinases, qPCR read-out, percent control at 300 nM
JNK1 = biological target: T1, JNK1 (Homo sapiens, UniProt P45983)
T1 construct: gene MAPK8

PRKCQ = PRKCQ (Homo sapiens, UniProt Q04759)
CDK2 = CDK2 (Homo sapiens, UniProt P24941)
DMPK2 = biological target: T2, DMPK2 (Homo sapiens, UniProt Q6DT37)
T2 construct: gene CDC42BPG

FLT3(N841I) = biological target: T3, FLT3(N841I) (Homo sapiens, UniProt P36888, N841I)
T3 sequence (P36888 1-993 N841I): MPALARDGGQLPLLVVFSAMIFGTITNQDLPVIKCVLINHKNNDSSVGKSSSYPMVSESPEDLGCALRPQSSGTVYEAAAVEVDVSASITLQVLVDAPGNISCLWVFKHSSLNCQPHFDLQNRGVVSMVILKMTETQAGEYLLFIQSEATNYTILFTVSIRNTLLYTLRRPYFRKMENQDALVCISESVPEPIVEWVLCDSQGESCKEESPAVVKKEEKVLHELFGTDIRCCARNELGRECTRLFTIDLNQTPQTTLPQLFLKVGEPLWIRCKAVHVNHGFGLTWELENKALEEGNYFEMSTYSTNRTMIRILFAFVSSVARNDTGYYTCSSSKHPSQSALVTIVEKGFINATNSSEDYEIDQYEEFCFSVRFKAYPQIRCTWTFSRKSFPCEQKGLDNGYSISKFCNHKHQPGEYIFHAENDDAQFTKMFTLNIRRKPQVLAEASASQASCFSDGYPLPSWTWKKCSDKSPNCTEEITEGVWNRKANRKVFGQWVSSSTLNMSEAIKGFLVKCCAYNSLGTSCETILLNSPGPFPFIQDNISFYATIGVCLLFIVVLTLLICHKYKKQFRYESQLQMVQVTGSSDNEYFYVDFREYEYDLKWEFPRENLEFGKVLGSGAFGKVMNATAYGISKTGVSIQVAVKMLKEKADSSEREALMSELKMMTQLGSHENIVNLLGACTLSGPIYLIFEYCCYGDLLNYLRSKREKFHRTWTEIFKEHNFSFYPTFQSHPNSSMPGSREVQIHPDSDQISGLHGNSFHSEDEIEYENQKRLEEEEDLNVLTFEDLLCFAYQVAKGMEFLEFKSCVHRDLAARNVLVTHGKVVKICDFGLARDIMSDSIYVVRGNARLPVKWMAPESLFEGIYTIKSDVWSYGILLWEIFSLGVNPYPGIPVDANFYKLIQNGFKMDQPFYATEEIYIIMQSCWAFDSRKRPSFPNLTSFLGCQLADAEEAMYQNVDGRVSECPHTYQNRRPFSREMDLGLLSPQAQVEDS

RIPK1 = biological target: T4, RIPK1 (Homo sapiens, UniProt Q13546)
T4 sequence (Q13546 1-671): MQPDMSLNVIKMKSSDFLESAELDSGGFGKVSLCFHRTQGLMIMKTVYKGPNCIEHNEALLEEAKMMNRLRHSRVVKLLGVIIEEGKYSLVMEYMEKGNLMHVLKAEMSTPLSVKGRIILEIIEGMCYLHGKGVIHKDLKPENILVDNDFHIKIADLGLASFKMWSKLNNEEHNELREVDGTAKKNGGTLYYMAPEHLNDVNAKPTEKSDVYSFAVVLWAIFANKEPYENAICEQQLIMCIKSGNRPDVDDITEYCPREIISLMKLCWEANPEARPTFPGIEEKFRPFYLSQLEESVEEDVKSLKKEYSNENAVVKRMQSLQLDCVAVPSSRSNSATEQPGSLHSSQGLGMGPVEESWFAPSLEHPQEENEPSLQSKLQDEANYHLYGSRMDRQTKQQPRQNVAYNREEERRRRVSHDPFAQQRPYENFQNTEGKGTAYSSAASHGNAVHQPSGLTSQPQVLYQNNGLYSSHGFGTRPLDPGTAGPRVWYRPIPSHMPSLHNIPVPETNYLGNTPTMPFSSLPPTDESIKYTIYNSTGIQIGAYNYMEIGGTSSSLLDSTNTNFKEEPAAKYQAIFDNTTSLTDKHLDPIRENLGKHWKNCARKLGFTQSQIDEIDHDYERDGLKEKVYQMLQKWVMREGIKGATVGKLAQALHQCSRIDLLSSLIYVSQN

[1] = read-out: Percent control / Acalabrutinib
[2] = read-out: Percent control / Ibrutinib
[3] = read-out: Percent control / Tirabrutinib
[4] = read-out: Percent control / Zanubrutinib

Sequence of PRKCQ (Q04759 whole entry): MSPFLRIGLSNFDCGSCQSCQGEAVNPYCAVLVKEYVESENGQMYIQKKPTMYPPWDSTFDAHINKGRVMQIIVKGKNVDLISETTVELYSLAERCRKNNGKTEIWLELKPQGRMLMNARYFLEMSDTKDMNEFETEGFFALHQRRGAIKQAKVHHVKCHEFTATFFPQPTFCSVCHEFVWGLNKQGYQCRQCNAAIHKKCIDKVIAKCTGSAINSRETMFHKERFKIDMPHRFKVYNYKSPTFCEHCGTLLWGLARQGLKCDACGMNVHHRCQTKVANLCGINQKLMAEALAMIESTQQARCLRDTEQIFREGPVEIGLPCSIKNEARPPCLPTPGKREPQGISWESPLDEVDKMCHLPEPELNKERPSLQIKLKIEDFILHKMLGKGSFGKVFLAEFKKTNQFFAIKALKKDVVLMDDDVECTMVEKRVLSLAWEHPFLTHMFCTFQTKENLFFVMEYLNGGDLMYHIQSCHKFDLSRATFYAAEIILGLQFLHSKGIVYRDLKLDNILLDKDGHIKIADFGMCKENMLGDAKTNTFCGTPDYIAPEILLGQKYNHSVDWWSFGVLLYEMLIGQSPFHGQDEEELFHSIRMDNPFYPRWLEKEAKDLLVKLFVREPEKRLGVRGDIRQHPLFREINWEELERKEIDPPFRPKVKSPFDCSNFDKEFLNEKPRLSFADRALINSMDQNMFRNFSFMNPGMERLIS
T2 sequence (Q6DT37 whole entry): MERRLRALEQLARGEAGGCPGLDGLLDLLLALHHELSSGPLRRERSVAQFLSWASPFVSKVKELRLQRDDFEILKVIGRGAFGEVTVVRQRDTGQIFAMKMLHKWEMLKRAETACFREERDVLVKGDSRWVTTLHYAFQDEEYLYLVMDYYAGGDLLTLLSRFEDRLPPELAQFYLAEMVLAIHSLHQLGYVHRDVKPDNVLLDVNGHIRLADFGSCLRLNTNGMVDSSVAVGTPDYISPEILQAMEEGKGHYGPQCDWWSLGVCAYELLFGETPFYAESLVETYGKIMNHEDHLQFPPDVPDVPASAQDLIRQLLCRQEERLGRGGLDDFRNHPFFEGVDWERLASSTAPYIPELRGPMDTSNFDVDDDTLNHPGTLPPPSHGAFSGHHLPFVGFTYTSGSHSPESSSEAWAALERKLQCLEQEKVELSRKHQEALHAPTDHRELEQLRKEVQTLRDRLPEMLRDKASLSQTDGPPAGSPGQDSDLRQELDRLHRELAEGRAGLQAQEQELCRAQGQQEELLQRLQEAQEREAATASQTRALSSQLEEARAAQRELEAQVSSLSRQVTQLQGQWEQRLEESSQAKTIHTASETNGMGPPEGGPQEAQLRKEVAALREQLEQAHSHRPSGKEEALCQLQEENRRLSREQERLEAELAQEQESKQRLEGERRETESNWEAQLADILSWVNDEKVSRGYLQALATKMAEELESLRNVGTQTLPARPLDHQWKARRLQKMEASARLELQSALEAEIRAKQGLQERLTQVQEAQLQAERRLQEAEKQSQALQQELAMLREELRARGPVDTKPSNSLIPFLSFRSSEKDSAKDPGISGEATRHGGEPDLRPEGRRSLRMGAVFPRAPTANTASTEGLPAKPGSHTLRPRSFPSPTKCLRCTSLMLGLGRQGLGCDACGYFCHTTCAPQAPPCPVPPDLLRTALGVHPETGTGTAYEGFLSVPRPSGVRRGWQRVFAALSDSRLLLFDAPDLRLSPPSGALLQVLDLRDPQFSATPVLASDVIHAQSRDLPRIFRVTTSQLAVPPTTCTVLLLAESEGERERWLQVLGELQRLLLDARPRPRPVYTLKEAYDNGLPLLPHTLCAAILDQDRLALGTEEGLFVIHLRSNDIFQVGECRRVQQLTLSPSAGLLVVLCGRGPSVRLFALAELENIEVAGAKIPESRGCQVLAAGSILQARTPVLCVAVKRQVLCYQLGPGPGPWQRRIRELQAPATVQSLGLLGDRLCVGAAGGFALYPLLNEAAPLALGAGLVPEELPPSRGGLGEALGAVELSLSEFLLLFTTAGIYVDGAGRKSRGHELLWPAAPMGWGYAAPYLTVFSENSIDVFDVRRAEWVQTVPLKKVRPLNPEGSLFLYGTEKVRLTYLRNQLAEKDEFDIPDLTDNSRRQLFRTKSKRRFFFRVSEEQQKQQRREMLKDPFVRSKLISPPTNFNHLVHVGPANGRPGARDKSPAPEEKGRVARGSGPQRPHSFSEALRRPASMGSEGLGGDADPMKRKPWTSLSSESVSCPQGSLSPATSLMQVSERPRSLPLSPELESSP
T1 sequence (P45983 whole entry): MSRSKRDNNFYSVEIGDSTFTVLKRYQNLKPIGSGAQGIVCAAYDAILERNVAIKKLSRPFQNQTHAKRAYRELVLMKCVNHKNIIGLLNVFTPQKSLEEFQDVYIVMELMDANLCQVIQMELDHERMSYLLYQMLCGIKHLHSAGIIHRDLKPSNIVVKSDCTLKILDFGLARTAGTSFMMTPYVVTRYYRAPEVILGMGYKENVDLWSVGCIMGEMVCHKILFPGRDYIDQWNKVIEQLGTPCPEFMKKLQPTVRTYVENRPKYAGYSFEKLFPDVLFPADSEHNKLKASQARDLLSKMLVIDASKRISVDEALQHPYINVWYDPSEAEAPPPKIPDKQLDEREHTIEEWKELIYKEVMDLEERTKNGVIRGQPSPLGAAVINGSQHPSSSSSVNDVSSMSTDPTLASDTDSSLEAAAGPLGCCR

`CC#CC(=O)N1CCC[C@H]1c1nc(-c2ccc(C(=O)Nc3ccccn3)cc2)c2c(N)nccn12` [Acalabrutinib] gave a remaining binding at 0.3 µM (JNK1; [1]) of 93%, a remaining binding at 0.3 µM (PRKCQ; [1]) of 84% and a remaining binding at 0.3 µM (CDK2; [1]) of 86%. For the same molecule, the remaining binding at 0.3 µM (DMPK2; [1]) was 91%, the remaining binding at 0.3 µM (FLT3(N841I); [1]) was 85% and the remaining binding at 0.3 µM (RIPK1; [1]) was 93%.

`C=CC(=O)N1CCC[C@@H](n2nc(-c3ccc(Oc4ccccc4)cc3)c3c(N)ncnc32)C1` [Ibrutinib] was tested, and the remaining binding at 0.3 µM (JNK1; [2]) was 96%, the remaining binding at 0.3 µM (DMPK2; [2]) was 75% and the remaining binding at 0.3 µM (FLT3(N841I); [2]) was 39%. For the same molecule, the remaining binding at 0.3 µM (RIPK1; [2]) was 93%.

`CC#CC(=O)N1CC[C@@H](n2c(=O)n(-c3ccc(Oc4ccccc4)cc3)c3c(N)ncnc32)C1` [Tirabrutinib] gave a remaining binding at 0.3 µM (JNK1; [3]) of 83%, a remaining binding at 0.3 µM (PRKCQ; [3]) of 93% and a remaining binding at 0.3 µM (CDK2; [3]) of 82%. The remaining binding at 0.3 µM (DMPK2; [3]) was 87%.

With `C=CC(=O)N1CCC([C@@H]2CCNc3c(C(N)=O)c(-c4ccc(Oc5ccccc5)cc4)nn32)CC1` [Zanubrutinib] the remaining binding at 0.3 µM (JNK1; [4]) was 100%, the remaining binding at 0.3 µM (PRKCQ; [4]) was 87% and the remaining binding at 0.3 µM (CDK2; [4]) was 99%. The remaining binding at 0.3 µM (FLT3(N841I); [4]) was 100% and the remaining binding at 0.3 µM (RIPK1; [4]) was 97%.

From PMC10004634 (PLOS ONE, 2023)
